One assay has as its system Prevotella intermedia. In words: Agar dilution MIC assay (anaerobes). To be noted: Micromyx Number 3002, 35° C., 48 hours, anaerobic. It counts as cell-based. On the technique in general: In agar dilution, organisms are placed on agar that contains the substance at set levels.
Assay [1] deals with Porphyromonas asaccharolytica. In words: Agar dilution MIC assay (anaerobes). In kind it is cell-based. The settings on record: Micromyx Number 3004, 35° C., 48 hours, anaerobic.
A further assay concerns Porphyromonas levii. Description: Agar dilution MIC assay (anaerobes). In kind it is cell-based. The settings on record: Micromyx Number 3003, 35° C., 48 hours, anaerobic.
The test system of the next assay is Bacteroides ovatus 3503. In words: Agar dilution MIC assay (anaerobes). In kind it is cell-based. The settings on record: Micromyx Number 3503, 35° C., 48 hours, anaerobic.
The subject of another assay is B. ovatus 3508. Description: Agar dilution MIC assay (anaerobes). It counts as cell-based, Bacteroides ovatus. To be noted: Micromyx Number 3508, 35° C., 48 hours, anaerobic.
For assay [2], the system named is Prevotella melaninogenica. In words: Agar dilution MIC assay (anaerobes). In kind it is cell-based. The settings on record: Micromyx Number 3005, 35° C., 48 hours, anaerobic.
The next assay deals with Lactobacillus gasseri. Description: Agar dilution MIC assay (anaerobes). The settings on record: Micromyx Number 4148, 35° C., 48 hours, anaerobic. It counts as cell-based.
Assay [3] relates to Bacteroides fragilis 3374. Description: Agar dilution MIC assay (anaerobes). The settings on record: Micromyx Number 3374, 35° C., 48 hours, anaerobic. It counts as cell-based.
The subject of another assay is Lactobacillus crispatus. Description: Agar dilution MIC assay (anaerobes). In kind it is cell-based. To be noted: Micromyx Number 4147, 35° C., 48 hours, anaerobic.
The test system of the next assay is Lactobacillus plantarum. Description: Agar dilution MIC assay (anaerobes). In kind it is cell-based. The settings on record: Micromyx Number 2791, 35° C., 48 hours, anaerobic.
For a further assay, the system named is Fusobacterium nucleatum. Description: Agar dilution MIC assay (anaerobes). It counts as cell-based. The settings on record: Micromyx Number 1269, 35° C., 48 hours, anaerobic.
For the next assay, the system named is Bacteroides ureolyticus. In words: Agar dilution MIC assay (anaerobes). In kind it is cell-based. To be noted: Micromyx Number 4150, 35° C., 48 hours, anaerobic.
For the next assay, the system named is Anaerococcus prevotii. Description: Agar dilution MIC assay (anaerobes). It counts as cell-based. To be noted: Micromyx Number 4151, 35° C., 48 hours, anaerobic.
Assay [4] deals with Bacteroides fragilis 0123 (ATCC 25285). Description: Agar dilution MIC assay (anaerobes), quality control organism. It counts as cell-based. To be noted: 48 hours, anaerobic.
In another assay the test system is Mobiluncus. curtisii. In words: Agar dilution MIC assay (anaerobes). It counts as cell-based. To be noted: Micromyx Number 4145, 35° C., 48 hours, anaerobic.
In a further assay the test system is Lactobacillus casei. Description: Agar dilution MIC assay (anaerobes). To be noted: Micromyx Number 1722, 35° C., 48 hours, anaerobic. In kind it is cell-based.
The test system of assay [5] is Lactobacillus acidophilus. Description: Agar dilution MIC assay (anaerobes). In kind it is cell-based. The settings on record: Micromyx Number 0681, 35° C., 48 hours, anaerobic.
For another assay, the system named is Prevotella bivia. In words: Agar dilution MIC assay (anaerobes). To be noted: Micromyx Number 3447, 35° C., 48 hours, anaerobic. In kind it is cell-based.
For another assay, the system named is Mobiluncus mulieris. Description: Agar dilution MIC assay (anaerobes). To be noted: Micromyx Number 4146, 35° C., 48 hours, anaerobic. In kind it is cell-based.
For a further assay, the system named is Gardnerella vaginalis. In words: Agar dilution MIC assay (anaerobes). It counts as cell-based. The settings on record: Micromyx Number 4153, 35° C., 48 hours, anaerobic.
Another assay deals with Anaerococcus tetradius. In words: Agar dilution MIC assay (anaerobes). In kind it is cell-based. The settings on record: Micromyx Number 4152, 35° C., 48 hours, anaerobic.
The test system of the next assay is Lactobacillus jensenii. In words: Agar dilution MIC assay (anaerobes). It counts as cell-based. The settings on record: Micromyx Number 4149, 35° C., 48 hours, anaerobic.
The subject of assay [6] is Peptostreptococcus anaerobius. In words: Agar dilution MIC assay (anaerobes). It counts as cell-based. To be noted: Micromyx Number 3526, 35° C., 48 hours, anaerobic.
The mark [7] stands for this setting: Bacteroides ovatus, read-out: MIC.

The structures appear in SMILES notation. Values after ≈ are worked out from the molar mass of the structure shown. Read-outs that look alike come from different tables or passages of the source. Where only a bound is given, the exact number is not on record here.

In general, MIC refers to the lowest concentration that inhibits growth of the organism. In the case of `C[C@@H](O)[C@H]1C(=O)N2C(C(=O)O)=C(SCCN=CN)C[C@H]12` [Imipenem, reference compound], the MIC was no more than 0.03 µg/mL with Prevotella intermedia (Prevotella intermedia, read-out: MIC); no more than 0.03 µg/mL in assay [1] (Porphyromonas asaccharolytica, read-out: MIC); 0.06 µg/mL (≈ 0.2 µM) in the assay on Porphyromonas levii (Porphyromonas levii, read-out: MIC); 0.25 µg/mL (≈ 0.835 µM) in the assay on Bacteroides ovatus 3503 (setting [7]); no more than 0.03 µg/mL in the assay on B. ovatus 3508 (setting [7]); no more than 0.03 µg/mL in assay [2] (Prevotella melaninogenica, read-out: MIC). Moreover, the MIC is 0.25 µg/mL (≈ 0.835 µM) in the assay on Lactobacillus gasseri (Lactobacillus gasseri, read-out: MIC); 2 µg/mL (≈ 6.68 µM) in [3] (Bacteroides fragilis, read-out: MIC); 0.12 µg/mL (≈ 0.401 µM) with Lactobacillus crispatus (Lactobacillus crispatus, read-out: MIC); 2 µg/mL (≈ 6.68 µM) in the assay on Lactobacillus plantarum (Lactiplantibacillus plantarum, read-out: MIC); no more than 0.03 µg/mL in the assay with Fusobacterium nucleatum (Fusobacterium nucleatum, read-out: MIC); 0.25 µg/mL (≈ 0.835 µM) in the assay on Bacteroides ureolyticus (Campylobacter ureolyticus, read-out: MIC). In addition, the MIC was 0.06 µg/mL (≈ 0.2 µM) with Anaerococcus prevotii (Anaerococcus prevotii, read-out: MIC); 0.12 µg/mL (≈ 0.401 µM) in [4] (Bacteroides fragilis, ATCC25285, Micromyx Number 0123, 35° C., read-out: MIC); no more than 0.03 µg/mL in the assay on Mobiluncus. curtisii (Mobiluncus curtisii, read-out: MIC); 0.5 µg/mL (≈ 1.67 µM) in the assay on Lactobacillus casei (Lacticaseibacillus casei, read-out: MIC); 0.12 µg/mL (≈ 0.401 µM) in assay [5] (Lactobacillus acidophilus, read-out: MIC); no more than 0.03 µg/mL with Prevotella bivia (Prevotella bivia, read-out: MIC). Besides, the MIC in the assay with Mobiluncus mulieris (Mobiluncus mulieris, read-out: MIC) is no more than 0.03 µg/mL; in the assay with Gardnerella vaginalis (Gardnerella vaginalis, read-out: MIC), 0.12 µg/mL (≈ 0.401 µM); in the assay with Anaerococcus tetradius (Anaerococcus tetradius, read-out: MIC), no more than 0.03 µg/mL; in the assay with Lactobacillus jensenii (Lactobacillus jensenii, read-out: MIC), 0.25 µg/mL (≈ 0.835 µM); in [6] (Peptostreptococcus anaerobius, read-out: MIC) it was no more than 0.03 µg/mL.

Turning to `CC(=O)COc1cc(S(=O)(=O)O)cc2cc(S(=O)(=O)O)ccc12` [SPL7013], the MIC in the assay on Prevotella intermedia was greater than 30000 µg/mL; in assay [1] it was greater than 30000 µg/mL; against Porphyromonas levii, greater than 30000 µg/mL; with Bacteroides ovatus 3503, greater than 30000 µg/mL; with B. ovatus 3508, 30000 µg/mL (≈ 83200 µM); in assay [2], greater than 30000 µg/mL. Further, the minimum inhibitory concentration (MIC) with Lactobacillus gasseri was greater than 30000 µg/mL; in [3], greater than 30000 µg/mL; against Lactobacillus crispatus it was 10000 µg/mL (≈ 27700 µM); in the assay on Lactobacillus plantarum it was greater than 30000 µg/mL; in the assay on Fusobacterium nucleatum it was greater than 30000 µg/mL; against Bacteroides ureolyticus it was greater than 30000 µg/mL. The minimum inhibitory concentration (MIC) with Anaerococcus prevotii is greater than 30000 µg/mL; in assay [4] (Micromyx Number 0123, 35° C.), greater than 30000 µg/mL; with Mobiluncus. curtisii it was greater than 30000 µg/mL; against Lactobacillus casei it was greater than 30000 µg/mL; in [5], greater than 30000 µg/mL; in the assay with Prevotella bivia, 30000 µg/mL (≈ 83200 µM). Also, the MIC with Mobiluncus mulieris is greater than 30000 µg/mL; against Gardnerella vaginalis, 5000 µg/mL (≈ 13900 µM); against Anaerococcus tetradius it was greater than 30000 µg/mL; against Lactobacillus jensenii, greater than 30000 µg/mL; in assay [6], greater than 30000 µg/mL.

The values above are taken from patent US9155760B2, “Method of prophylaxis of bacterial vaginosis” (STARPHARMA PTY LIMITED, priority 2011, dated 2015).
